What was measured:
Solubility study of ML = assay type: physicochemical; conditions: without α-CD, before stirring
Procedure: The solubility study of ML was carried out in water, methanol and methanol/chloroform mixture 1/1 v/v. In 10 mL glass vials, 10 mg of ML were added to 500 μL of solvent and left under magnetic stirring at 300 rpm at 25° C.

[1] = Thermogravimetric analysis; assay type: physicochemical; conditions: α-CD value at 420° C.
Procedure: The thermal behavior of ML/α-CD at 5 mg·mL^−1 and 70 mg·mL^−1 respectively and uncomplexed α-CD were studied using thermogravimetric analysis (FIG. 14).

solubility of ML in water (Solubility study of ML) | Structure (SMILES) | residual mass percentage [1] [%]
insoluble | CCCCCCCCCCCCCCCCCC(=O)NCCCO[C@H]1O[C@H](CO)[C@@H](O)[C@H](O)[C@@H]1O [ML, 3-octadecanoylamino-α-D mannopyranoside] | 
 | OC[C@H]1O[C@@H]2O[C@H]3[C@H](O)[C@@H](O)[C@@H](O[C@H]4[C@H](O)[C@@H](O)[C@@H](O[C@H]5[C@H](O)[C@@H](O)[C@@H](O[C@H]6[C@H](O)[C@@H](O)[C@@H](O[C@H]7[C@H](O)[C@@H](O)[C@@H](O[C@H]1[C@H](O)[C@H]2O)O[C@@H]7CO)O[C@@H]6CO)O[C@@H]5CO)O[C@@H]4CO)O[C@@H]3CO [α-CD, alpha-cyclodextrin] | 0

From patent publication US20260283922A1, “Particles of Hydrophobic-Chain-Modified Monosaccharides and Cyclodextrin” (PARIS SCIENCES ET LETTRES, priority 2023, published 2026)
